# Test results from PMC7583942, “Profiling Anticancer and Antioxidant Activities of Phenolic Compounds Present in Black Walnuts (Juglans nigra) Using a High-Throughput Screening Approach” (Molecules, 2020).
# Where two headings read alike, the source gives them in different places.
# Legend:
# [1] = Total antioxidant capacity (TAC) colorimetric assay; details: for Fold-Increase Over Trolox: coefficient of compound model divided by coefficient of Trolox control; for total antioxidant capacity compared with the control (Trolox): in words; for Slope (in Trolox Equivalents): linear regression of dose-response, 7 concentrations, Cu2+ reagent, 1.5 h, absorbance 570 nm
# Procedure: The antioxidant capacity of the phenolic compounds was evaluated using a total antioxidant capacity (TAC) colorimetric assay kit (K274-100, BioVision, CA, USA), according to the manufacturer’s instructions. Briefly, the phenolic compounds tested at 7 concentrations (as described above) were added to 384-well plates. Subsequently, Cu^2+ working solution (12.5 µL/ well) was added into the sample wells. The 384-well plates were incubated for 1.5 h at room temperature and the absorbance of the samples was then read at 570 nm using a microplate reader (Enspire, Perkin Elmer Inc., Waltham, MA, USA). Trolox was used to standardize the antioxidant capacity, as recommended by the manufacturer. A Trolox standard curve was included, and the total antioxidant capacity of the phenolic compounds was interpolated and expressed as Trolox equivalent (mM) from a seven-parameter logistic curve of the Trolox control using curve-fitting software.
# For total antioxidant capacity analysis, linear regression analysis was performed to identify the linear regression equation for each compound using GraphPad Prism 8 (San Diego, CA, USA). The coefficient of the compound equation was compared with the coefficient of the Trolox control to determine the relative total antioxidant capacity of each compound. Fold-increase over Trolox was calculated by dividing the coefficient of the compound models by the coefficient of the Trolox control.
# [2] = tested on: tumorigenic alveolar epithelial cells (A549); experiment: Cell proliferation assay (CellTiter-Glo), A549; type: cell-based, human; details: read-out: Half maximal inhibitory concentration (IC50), A549 Cell Line
# Procedure: (§1) An Nrf2 antioxidant response element (ARE) reporter HepG2 cell line, a stably transfected liver cell line expressing a firefly luciferase gene under the control of the ARE, was purchased from BPS Bioscience (San Diego, CA, USA). The human alveolar epithelial cell line A549 and the human lung fibroblast cell line MRC-5 were obtained from American Type Culture Collection (ATCC) (CCL-185 and CCL-171, ATCC, Manassas, VA, USA). The HepG2-ARE cells were grown in modified Eagle’s medium (MEM) supplemented with GlutaMAX, 10% fetal calf serum (FBS) and 600ug/mL Geneticin (Thermo Fisher Scientific, Waltham, MA, USA). […] All cells were grown and maintained at 37 °C in a humidified incubator with 5% CO2. Influence of the phenolic compounds on cell growth in the tumorigenic alveolar epithelial cells (A549) and non-tumorigenic lung fibroblast cell (MRC-5) cell lines was investigated using the CellTiter-Glo® cell viability assay kit (G7571, BioVision, CA, USA), according to the manufacturer’s instructions. […] The cultures were treated with the phenolic compounds and DL-Sulphorane (a known antiproliferative agent as a positive control) at 7 final concentrations (as mentioned above) and a vehicle (0.35% DMSO). After 72h of incubation, CellTiter-Glo Luminescent assay reagent (Promega) was dispensed at a volume of 10 µL per well into the 384-well plates for 10 min using the Matrix Wellmate dispenser (Thermo Fisher Scientific). The plates were allowed to incubate at room temperature for 20 min and then the luminescence was read using an Enspire microplate reader (Perkin Elmer Inc.) The relative cytotoxicity (%) of the phenolic compounds was calculated by dividing the specific luminescence absorbance of the treated sampled by the specific luminescence absorbance of the control sample and multiplying by 100. The control sample (in the presence of DMSO vehicle and without the compounds) was set at 100%. Non-linear regression analysis of data was performed to identify the dose-response curve for each compound. The IC50 values (half maximal inhibitory concentration) of each compound were determined from the dose-response curve for the A549 and MRC-5 cell lines using GraphPad Prism 8.
# [3] = tested on: non-tumorigenic lung fibroblast cells (MRC-5); experiment: Cell proliferation assay (CellTiter-Glo), MRC-5; type: cell-based, human; details: read-out: Half maximal inhibitory concentration (IC50), MRC-5 Cell Line
# Procedure: as §1
# [4] = tested on: antioxidant response element (ARE) in HepG2-ARE cells; experiment: Antioxidant response element (ARE) activation, Steady-Glo luciferase reporter assay; type: cell-based, human; details: for toxicity to HepG2-ARE cells: at high concentrations, did not induce ARE activation
# Procedure: An Nrf2 antioxidant response element (ARE) reporter HepG2 cell line, a stably transfected liver cell line expressing a firefly luciferase gene under the control of the ARE, was purchased from BPS Bioscience (San Diego, CA, USA). The human alveolar epithelial cell line A549 and the human lung fibroblast cell line MRC-5 were obtained from American Type Culture Collection (ATCC) (CCL-185 and CCL-171, ATCC, Manassas, VA, USA). The HepG2-ARE cells were grown in modified Eagle’s medium (MEM) supplemented with GlutaMAX, 10% fetal calf serum (FBS) and 600ug/mL Geneticin (Thermo Fisher Scientific, Waltham, MA, USA). The tumorigenic alveolar epithelial cells (A549) and non-tumorigenic lung fibroblast cells (MRC-5) were grown in RPMI medium supplemented with 10% FBS. All cells were grown and maintained at 37 °C in a humidified incubator with 5% CO2.
# The impact of the phenolic compounds on ARE activation in the HepG2-ARE cell line was evaluated using Steady-Glo® Luciferase assay system (E2510, Promega, Madison, WI, USA), following the manufacturer’s instructions. In brief, the HepG2 -ARE cells were seeded at a density of 10,000 cells/well in 384-well plates containing 50 µL of the complete media per well using a Multidrop Combi dispenser (Thermo Fisher Scientific, Waltham, MA, USA) and then the plate cultures were incubated at 37 °C in a 5% CO2 humidified incubator for 20 h. The HepG2-ARE cells were incubated with compounds for 18 h. The known ARE activator TBHQ was used as a positive control and the cells treated with 0.35% DMSO and without compounds tested served as a vehicle control. The cells in the absence of DMSO and the compounds were utilized for measuring the background luminescence. The reporter activity was measured by the addition of 25 µL Steady-Glo® luciferase assay reagent (Promega) for 30 min using the Multidrop Combi dispenser (Thermo Fisher Scientific). The luminescence intensities of the 384-well plates were read on Enspire microplate reader (Perkin Elmer Inc.). Percent cytotoxicity of compounds was normalized to the positive and negative controls on each assay plate.
# The ARE fold induction of the compounds was measured by dividing the luminescence absorbance of the treatment by the specific luminescence absorbance of the control sample and multiplying by 100. The control sample (in the presence of DMSO vehicle and without the compounds) was set at 100%.
# [5] = Homo sapiens, A549, 72 h incubation
# [6] = Homo sapiens, MRC5, 72 h incubation
Structure (SMILES),Fold-Increase Over Trolox [1],total antioxidant capacity compared with the control (Trolox) [1],Slope (in Trolox Equivalents) [1],"IC50 [2, 5]","IC50 [3, 6]",IC50 ([2]; 72 h incubation),IC50 ([3]; 72 h incubation),toxicity to HepG2-ARE cells [4],"ARE activation among all compounds (rank in words) ([4]; HepG2-ARE cells, 18 h)"
O=c1c(O)c(-c2ccc(O)c(O)c2)oc2cc(O)cc(O)c12 [Quercetin],4.0,higher,0.004045 ± 1.392 × 10^−4,87.7 µM,99.5 µM,,,,
COc1cc(C(=O)O)ccc1O [Vanillic acid],0.7,lower,0.0007396 ± 4.245 × 10^−5,> 250 µM,> 250 µM,,,,
O=C(O)C=Cc1ccc(O)cc1 [p-Coumaric acid],0.3,lower,0.0003139 ± 1.434 × 10^−5,> 250 µM,> 250 µM,,,,
Oc1cc(O)c2c(c1)O[C@H](c1ccc(O)c(O)c1)[C@@H](O)C2 [(+)-Catechin],2.0,higher,0.002029 ± 3.184 × 10^−5,,,> 250 µM,> 250 µM,,
O=C(O)[C@]1(O)C[C@@H](O)[C@@H](O)[C@H](O)C1 [Quinic acid],<0.1,lower,−0.0000004 ± 1.034 × 10^−6,> 250 µM,> 250 µM,,,,
COc1cc(/C=C/C(=O)O)ccc1O [Ferulic acid],1.8,higher,0.001775 ± 5.026 × 10^−5,,,> 250 µM,> 250 µM,,
O=C(O)c1cc(O)c(O)c(O)c1 [Gallic acid],,higher,0.002541 ± 1.392 × 10^−5,> 250 µM,48.2 µM,,,,
COc1cc(C(=O)O)cc(OC)c1O [Syringic acid],1.1,higher,0.001088 ± 1.057 × 10^−5,> 250 µM,> 250 µM,,,,
O=C(OC[C@H]1O[C@@H](OC(=O)c2cc(O)c(O)c(O)c2)[C@H](OC(=O)c2cc(O)c(O)c(O)c2)[C@@H](OC(=O)c2cc(O)c(O)c(O)c2)[C@@H]1OC(=O)c1cc(O)c(O)c(O)c1)c1cc(O)c(O)c(O)c1 [Penta-O-galloyl-β-D-glucose],11.5,higher,0.01167 ± 5.756 × 10^−4,,,6.11 µM,10.4 µM,toxic to cells,
C[C@@H]1O[C@@H](O[C@H]2[C@H](Oc3cc(O)c4c(c3)O[C@H](c3ccc(O)cc3)CC4=O)O[C@H](CO)[C@@H](O)[C@@H]2O)[C@H](O)[C@H](O)[C@H]1O [Naringin],0.5,lower,0.0005177 ± 9.755 × 10^−6,> 250 µM,> 250 µM,,,,
O=C(O[C@@H]1Cc2c(O)cc(O)cc2O[C@@H]1c1ccc(O)c(O)c1)c1cc(O)c(O)c(O)c1 [Epicatechin gallate],4.2,higher,0.004294 ± 1.570 × 10^−4,66 µM,64.4 µM,,,toxic to cells,
O=c1oc2c(O)c(O)cc3c(=O)oc4c(O)c(O)cc1c4c23 [Ellagic acid],0.5,lower,0.0005183 ± 2.860 × 10^−5,> 250 µM,> 250 µM,,,,
O=C(O)c1ccc(O)cc1 [p-Hydroxybenzoic acid],,lower,−0.000008 ± 1.260 × 10^−5,> 250 µM,> 250 µM,,,,
O=c1c(O[C@@H]2O[C@H](CO)[C@@H](O)[C@H](O)[C@H]2O)c(-c2ccc(O)c(O)c2)oc2cc(O)cc(O)c12 [Quercetin 3-β-D-glucoside],2.9,higher,0.002908 ± 1.522 × 10^−4,,,6.89 µM,12.2 µM,toxic to cells,
C[C@@H]1O[C@@H](OC[C@H]2O[C@@H](Oc3c(-c4ccc(O)c(O)c4)oc4cc(O)cc(O)c4c3=O)[C@H](O)[C@@H](O)[C@@H]2O)[C@H](O)[C@H](O)[C@H]1O [Rutin],2.9,higher,0.002962 ± 1.551 × 10^−4,> 250 µM,> 250 µM,,,,
"C[S+]([O-])CCCCN=C=S (racemic) [DL-Sulforaphane, reference compound]",,,,,,17 µM,9.95 µM,,
Oc1cc(O)c2c(c1)O[C@H](c1ccc(O)c(O)c1)[C@H](O)C2 [(−)-Epicatechin],3.7,higher,0.003729 ± 7.546 × 10^−5,> 250 µM,> 250 µM,,,,strongest
"Cc1c(C)c2c(c(C)c1O)CCC(C)(C(=O)O)O2 (centres unmarked) [Trolox, reference compound]",1.0,,0.001014 ± 1.125 × 10^−5,,,,,,
